These results are taken from patent US20250051321A1, “TRICYCLIC DERIVATIVE AND PREPARATION METHOD THEREFOR AND APPLICATION THEREOF” (SHANGHAI JEMINCARE PHARMACEUTICAL CO., LTD., priority 2021, published 2025).

The structures appear in SMILES notation.

One assay relates to plasma LPA 18:1 and LPA 18:2. Nature of the assay: Human plasma ex vivo assay (LPA 18:1 / 18:2 by LC-MS/MS). Particulars: 37° C., 2 hours, LPA 18:1, read-out: Human plasma ex vivo assay IC50 (18:1 LPA). The assay is classed as biochemical. On the procedure:
The collected plasma was centrifuged at 4000 rpm for 15 minutes at 4° C. The supernatant was aliquoted into a 96-well plate (25 μL per well), sealed, and frozen at −80° C. for further use.
LPA 17:0 powder was dissolved in a mixed solution of water: isopropanol: formic acid (1:1:1) to a final concentration of […]. The mixture was aliquoted and frozen at −20° C.
1 volume of formic acid was added to 1000× methanol, mixed well, and stored at 4° C. a) The 96-well plate containing frozen plasma was removed from the −80° C. freezer and thawed on ice at room temperature. b) 6 μL of 50× LPA 17:0 (internal standard) and 264 μL of 0.1% FA were added to a clean well of the 96-well plate; the final concentration of LPA 17:0 (internal standard) was 50 nM. c) 6× compound was 1:3 serially diluted to a total of 8 concentrations, and 5 μL of the compound per well was added to the 96-well plate containing plasma. The maximum final concentration of the compound was 10 μM, and the final concentration of DMSO was 0.1%. The plate was centrifuged at 300 rpm for 30 seconds. The DMSO control sample reacted for 0 hours was used as the minimum value (Min), and the DMSO control sample reacted for 2 hours was used as the maximum value (Max). […]
d) The DMSO sample reacted for 0 hours was rapidly transferred to 0.1% FA solution containing the internal standard in step b) to terminate the reaction and precipitate plasma proteins. e) The 96-well plate containing plasma and compounds was rapidly incubated in a 37° C. incubator for 2 hours. After the incubation, 6 μL of 10× LPA 17:0 and 264 μL of 0.1% FA were added to each well to terminate the reaction and precipitate plasma proteins. […]
f) All the samples were mixed well with a pipette, and centrifuged at 4000 rpm for 10 minutes at 4° C. 150 μL of the supernatant was added to a 96-well U-bottom plate (Thermo 267245), sealed with silica gel, and then loaded. The contents of LPA 18:1 and LPA 18:2 in the samples were detected by LC-MS/MS system.
LPA 18:1(or 18:2) relative content=LPA 18:1(or 18:2) peak area/LPA 17:0 peak area Percentage reduction (%) in plasma LPA18:1(or 18:2)=(Max−X)/(Max−Min)*100 Max: LPA 18:1 (or 18:2) relative content of the DMSO sample reacted for 2 hours Min: LPA 18:1 (or 18:2) relative content of the DMSO sample reacted for 0 hours X: LPA 18:1 (or 18:2) relative content of the sample after compound treatment for 2 hours The IC50 of the compounds was calculated by fitting a nonlinear regression through percentage reduction in plasma LPA 18:1 (or 18:2) and log value of compound concentration using the software GraphPad Prism 8.
Y=Bottom+(Top−Bottom)/(1+10^((Log IC50−X)*Hill Slope))
What is called IC50 is the concentration that inhibits the measured activity by half. Consider `CN(c1nc(-c2ccc(F)cc2)c(C#N)s1)c1c2c(nc3c(F)cc(N4CCC5(CCN(CC(=O)N6CC(O)C6)CC5)C4)cc13)C(O)CC2` (stereo not shown) [Example E48], for which the IC50 was determined as 740 nM.
Turning to `CN(c1nc(-c2ccc(F)cc2)c(C#N)s1)c1c2c(nc3c(F)cc(N4CC5(CN(C(=O)C6CC(=O)OC67CCCC7)C5)C4)cc13)C(O)CC2` (stereo not shown) [Example E49], the IC50 was found to be 494 nM.
Turning to `CN(c1nc(-c2ccc(F)cc2)c(C#N)s1)c1c2c(nc3c(F)cc(N4CC5(CN(C(=O)[C@H]6CCCN6C)C5)C4)cc13)C(O)CC2` (stereo partly shown) [Example E50], the IC50 came to 583 nM.
Still for that read-out and setting: then `CN(c1nc(-c2ccc(F)cc2)c(C#N)s1)c1c2c(nc3c(F)cc(N4CC5(CN(C(=O)[C@@H]6CCCN6C)C5)C4)cc13)C(O)CC2` (stereo partly shown) [Example E51], with 348 nM; and `CN(c1nc(-c2ccc(F)cc2)c(C#N)s1)c1c2c(nc3c(F)cc(N4CC5(CN(C(=O)C6(N)CCOC6)C5)C4)cc13)C(O)CC2` (stereo not shown) [Example E52], with 670 nM; and `CN(c1nc(-c2ccc(F)cc2)c(C#N)s1)c1c2c(nc3c(F)cc(N4CC5(CN(C(=O)C6CCOC6=O)C5)C4)cc13)C(O)CC2` (stereo not shown) [Example E56], with 499 nM.
`CN(c1nc(-c2ccc(F)cc2)c(C#N)s1)c1c2c(nc3c(F)cc(N4CC5(CN(CC(=O)N6CC(O)C6)C5)C4)cc13)C(O)CC2` (stereo not shown) [Example E57]: the IC50 was determined as 183 nM.
In the case of `CN(c1nc(-c2ccc(F)cc2)c(C#N)s1)c1c2c(nc3c(F)cc(N4CC5(CN(C(=O)C6CC(O)C6)C5)C4)cc13)C(O)CC2` (stereo not shown) [Example E58], the IC50 was 263 nM.
For `CN(c1nc(-c2ccc(F)cc2)c(C#N)s1)c1c2c(nc3c(F)cc(N4CC5(CN(C(=O)C6(C)CCOC6)C5)C4)cc13)C(O)CC2` (stereo not shown) [Example E59], the IC50 was determined as 240 nM.
Still for that read-out and setting: then `CN(c1nc(-c2ccc(F)cc2)c(C#N)s1)c1c2c(nc3c(F)cc(N4CC5(CN(C(=O)C6CCCC6)C5)C4)cc13)C(O)CC2` (stereo not shown) [Example E60], with 462 nM; and `CN(c1nc(-c2ccc(F)cc2)c(C#N)s1)c1c2c(nc3c(F)cc(N4CC5(CN(C(=O)[C@H]6CCCO6)C5)C4)cc13)C(O)CC2` (stereo partly shown) [Example E61], with 583 nM; and `CN(c1nc(-c2ccc(F)cc2)c(C#N)s1)c1c2c(nc3c(F)cc(N4CC5(CN(C(=O)C6CCC(=O)O6)C5)C4)cc13)C(O)CC2` (stereo not shown) [Example E62], with 332 nM.
On the same count and under the same terms, then `CN(c1nc(-c2ccc(F)cc2)c(C#N)s1)c1c2c(nc3c(F)cc(N4CC5(CN(C(=O)C(C)(C)O)C5)C4)nc13)C(O)CC2` (stereo not shown) [Example E65], with 369 nM.
Same read-out and setting: then `CCc1nc2c(C)cc(N3CCN(CC(=O)N4CC(O)C4)CC3)cn2c1N(C)c1nc(-c2ccc(F)cc2)c(C#N)s1` [GLPG1690, reference compound], with 465 nM.

The assay is the same for the next values; noted with them: 37° C., 2 hours, LPA 18:2, read-out: Human plasma ex vivo assay IC50 (18:2 LPA).
As to `CN(c1nc(-c2ccc(F)cc2)c(C#N)s1)c1c2c(nc3c(F)cc(N4CCC5(CCN(CC(=O)N6CC(O)C6)CC5)C4)cc13)C(O)CC2` (stereo not shown) [Example E48], the IC50 amounted to 671 nM.
The same measure, in the same setting: then `CN(c1nc(-c2ccc(F)cc2)c(C#N)s1)c1c2c(nc3c(F)cc(N4CC5(CN(C(=O)C6CC(=O)OC67CCCC7)C5)C4)cc13)C(O)CC2` (stereo not shown) [Example E49], with 576 nM; and `CN(c1nc(-c2ccc(F)cc2)c(C#N)s1)c1c2c(nc3c(F)cc(N4CC5(CN(C(=O)[C@H]6CCCN6C)C5)C4)cc13)C(O)CC2` (stereo partly shown) [Example E50], with 546 nM.
On the same count and under the same terms, then `CN(c1nc(-c2ccc(F)cc2)c(C#N)s1)c1c2c(nc3c(F)cc(N4CC5(CN(C(=O)[C@@H]6CCCN6C)C5)C4)cc13)C(O)CC2` (stereo partly shown) [Example E51], with 850 nM.
The same measure, in the same setting: then `CN(c1nc(-c2ccc(F)cc2)c(C#N)s1)c1c2c(nc3c(F)cc(N4CC5(CN(C(=O)C6(N)CCOC6)C5)C4)cc13)C(O)CC2` (stereo not shown) [Example E52], with 423 nM.
In the case of `CN(c1nc(-c2ccc(F)cc2)c(C#N)s1)c1c2c(nc3c(F)cc(N4CC5(CN(C(=O)C6CCOC6=O)C5)C4)cc13)C(O)CC2` (stereo not shown) [Example E56], the IC50 came out at 440 nM.
Regarding `CN(c1nc(-c2ccc(F)cc2)c(C#N)s1)c1c2c(nc3c(F)cc(N4CC5(CN(CC(=O)N6CC(O)C6)C5)C4)cc13)C(O)CC2` (stereo not shown) [Example E57], the IC50 came to 171 nM.
Still for that read-out and setting: then `CN(c1nc(-c2ccc(F)cc2)c(C#N)s1)c1c2c(nc3c(F)cc(N4CC5(CN(C(=O)C6CC(O)C6)C5)C4)cc13)C(O)CC2` (stereo not shown) [Example E58], with 271 nM; and `CN(c1nc(-c2ccc(F)cc2)c(C#N)s1)c1c2c(nc3c(F)cc(N4CC5(CN(C(=O)C6(C)CCOC6)C5)C4)cc13)C(O)CC2` (stereo not shown) [Example E59], with 405 nM.
Take `CN(c1nc(-c2ccc(F)cc2)c(C#N)s1)c1c2c(nc3c(F)cc(N4CC5(CN(C(=O)C6CCCC6)C5)C4)cc13)C(O)CC2` (stereo not shown) [Example E60]: the IC50 stood at 448 nM.
Regarding `CN(c1nc(-c2ccc(F)cc2)c(C#N)s1)c1c2c(nc3c(F)cc(N4CC5(CN(C(=O)[C@H]6CCCO6)C5)C4)cc13)C(O)CC2` (stereo partly shown) [Example E61], the IC50 was 839 nM.
With `CN(c1nc(-c2ccc(F)cc2)c(C#N)s1)c1c2c(nc3c(F)cc(N4CC5(CN(C(=O)C6CCC(=O)O6)C5)C4)cc13)C(O)CC2` (stereo not shown) [Example E62], the IC50 came to 576 nM.
On the same count and under the same terms, then `CN(c1nc(-c2ccc(F)cc2)c(C#N)s1)c1c2c(nc3c(F)cc(N4CC5(CN(C(=O)C(C)(C)O)C5)C4)nc13)C(O)CC2` (stereo not shown) [Example E65], with 496 nM; and `CCc1nc2c(C)cc(N3CCN(CC(=O)N4CC(O)C4)CC3)cn2c1N(C)c1nc(-c2ccc(F)cc2)c(C#N)s1` [GLPG1690, reference compound], with 464 nM.
